Laboratory results from patent publication US5212326A, “Sodium hydrogen divalproate oligomer” (Abbott Laboratories, priority 1991, dated 1993).

How the values were obtained:
Type in all cases: in vivo
[1] = test system: Pentylenetetrazole seizures; experiment: Anticonvulsant activity, pentylenetetrazole seizures in mice (oral ED50); details: based on equimolar valproic acid equivalents
Excerpt: (§1) In a comparison of anticonvulsant activities of
(§2) the oral ED50 based on equimolar valproic acid equivalents are established by standard procedures.

[2] = Bioavailability study, blood plasma levels and AUC in dog; details: po, 25 mg/kg, equimolar doses
Procedure: (§3) In a bioavailability study carried out with (A) and (C) above in various animal species, the peak blood plasma levels of oral, equimolar doses are determined according to standard procedures, 30 minutes after drug administration.
*Area under the curve value for 0-7 hours.

[3] = Bioavailability study, blood plasma levels in rat; details: po, 200 mg/kg, equimolar doses, 30 minutes after administration, read-out: peak blood plasma levels
Procedure: as §3

[4] = Bioavailability study, blood plasma levels in mouse; details: po, 200 mg/kg, equimolar doses, 30 minutes after administration, read-out: peak blood plasma levels
Procedure: as §3

[5] = test system: Pentylenetetrazole seizures; experiment: Anticonvulsant activity, pentylenetetrazole seizures in rats (oral ED50); details: Rattus norvegicus, based on equimolar valproic acid equivalents
Excerpt: as §1, §2

Row | SMILES | oral ED50, Pentylenetetrazole seizures (mice) [1] [mg/kg] | AUC at 7 h ([2]; 0-7 hours, read-out: AUC (Area under the curve value for 0-7 hours)) [ng·h/mL] | Cmax at 0.5 h ([2]; 30 minutes after administration, read-out: peak blood plasma levels) [ng/g] | Cmax at 0.5 h [3] [ng/g] | Cmax at 0.5 h [4] [ng/g] | ED50 [5] [mg/kg] | ED50 ([1]; Mus musculus, po) [mg/kg]
1 | CCCC(CCC)C(=O)O [A, 2-propylpentanoic acid] | < 800 | 82300 | 65200 | 84100 | 134000 | 355 | 
2 | CCCC(CCC)C(=O)[O-].[Na+] [B, sodium valproate] |  |  |  |  |  | 415 | 282
